Calls of active or inactive are those of the source. The rule behind the calls is not given here.
How the values were obtained:
Type in all cases: functional, organism-based
Conditions in all cases: Trachea
Pseudomonas aeruginosa [1] = experiment: Antimicrobial activity against Pseudomonas aeruginosa 65.68-3 tracheal isolates from mechanically ventilated tuberculosis patient
Pseudomonas aeruginosa [2] = experiment: Antimicrobial activity against Pseudomonas aeruginosa 2A3 tracheal isolates from mechanically ventilated tuberculosis patient
Pseudomonas aeruginosa [3] = experiment: Antimicrobial activity against Pseudomonas aeruginosa 13D11 tracheal isolates from mechanically ventilated chronic respiratory insufficiency patient
Pseudomonas aeruginosa [4] = experiment: Antimicrobial activity against Pseudomonas aeruginosa 19B6 tracheal isolates from mechanically ventilated chronic respiratory insufficiency patient
Pseudomonas aeruginosa [5] = experiment: Antimicrobial activity against Pseudomonas aeruginosa 2A7 tracheal isolates from mechanically ventilated tuberculosis patient
Pseudomonas aeruginosa [6] = experiment: Antimicrobial activity against Pseudomonas aeruginosa 65.33-1 tracheal isolates from mechanically ventilated tuberculosis patient
Pseudomonas aeruginosa [7] = experiment: Antimicrobial activity against Pseudomonas aeruginosa 24E5 tracheal isolates from mechanically ventilated chronic respiratory insufficiency patient
Pseudomonas aeruginosa [8] = experiment: Antimicrobial activity against Pseudomonas aeruginosa 19C7 tracheal isolates from mechanically ventilated chronic respiratory insufficiency patient
Pseudomonas aeruginosa [9] = experiment: Antimicrobial activity against Pseudomonas aeruginosa 3B1 tracheal isolates from mechanically ventilated tuberculosis patient
Pseudomonas aeruginosa [10] = experiment: Antimicrobial activity against Pseudomonas aeruginosa 9B5 tracheal isolates from mechanically ventilated chronic respiratory insufficiency patient
Pseudomonas aeruginosa [11] = experiment: Antimicrobial activity against Pseudomonas aeruginosa 5F2 tracheal isolates from mechanically ventilated chronic respiratory insufficiency patient
Pseudomonas aeruginosa [12] = experiment: Antimicrobial activity against Pseudomonas aeruginosa 3D1 tracheal isolates from mechanically ventilated chronic respiratory insufficiency patient
Pseudomonas aeruginosa [13] = experiment: Antimicrobial activity against Pseudomonas aeruginosa 8A2 tracheal isolates from mechanically ventilated chronic respiratory insufficiency patient
Pseudomonas aeruginosa [14] = experiment: Antimicrobial activity against Pseudomonas aeruginosa 65.36-4 tracheal isolates from mechanically ventilated tuberculosis patient
Pseudomonas aeruginosa [15] = experiment: Antimicrobial activity against Pseudomonas aeruginosa 9A10 tracheal isolates from mechanically ventilated chronic respiratory insufficiency patient
Pseudomonas aeruginosa [16] = experiment: Antimicrobial activity against Pseudomonas aeruginosa 8B11 tracheal isolates from mechanically ventilated chronic respiratory insufficiency patient
Pseudomonas aeruginosa [17] = experiment: Antimicrobial activity against Pseudomonas aeruginosa 2A2 tracheal isolates from mechanically ventilated tuberculosis patient
Pseudomonas aeruginosa [18] = experiment: Antimicrobial activity against Pseudomonas aeruginosa 3E2 tracheal isolates from mechanically ventilated chronic respiratory insufficiency patient
Pseudomonas aeruginosa [19] = experiment: Antimicrobial activity against Pseudomonas aeruginosa 22D9 tracheal isolates from mechanically ventilated chronic respiratory insufficiency patient
Pseudomonas aeruginosa [20] = experiment: Antimicrobial activity against Pseudomonas aeruginosa 10B3 tracheal isolates from mechanically ventilated chronic respiratory insufficiency patient
Pseudomonas aeruginosa [21] = experiment: Antimicrobial activity against Pseudomonas aeruginosa 2C2 tracheal isolates from mechanically ventilated tuberculosis patient
Pseudomonas aeruginosa [22] = experiment: Antimicrobial activity against Pseudomonas aeruginosa P21.21 tracheal isolates from mechanically ventilated tuberculosis patient
Pseudomonas aeruginosa [23] = experiment: Antimicrobial activity against Pseudomonas aeruginosa 65.38-3 tracheal isolates from mechanically ventilated tuberculosis patient
Pseudomonas aeruginosa [24] = experiment: Antimicrobial activity against Pseudomonas aeruginosa 8A12 tracheal isolates from mechanically ventilated chronic respiratory insufficiency patient
Pseudomonas aeruginosa [25] = experiment: Antimicrobial activity against Pseudomonas aeruginosa 22E1 tracheal isolates from mechanically ventilated chronic respiratory insufficiency patient
Pseudomonas aeruginosa [26] = experiment: Antimicrobial activity against Pseudomonas aeruginosa 19E2 tracheal isolates from mechanically ventilated chronic respiratory insufficiency patient
Pseudomonas aeruginosa [27] = experiment: Antimicrobial activity against Pseudomonas aeruginosa 10A6 tracheal isolates from mechanically ventilated chronic respiratory insufficiency patient
Pseudomonas aeruginosa [28] = experiment: Antimicrobial activity against Pseudomonas aeruginosa 65.36-3 tracheal isolates from mechanically ventilated tuberculosis patient
Pseudomonas aeruginosa [29] = experiment: Antimicrobial activity against Pseudomonas aeruginosa 16D5 tracheal isolates from mechanically ventilated chronic respiratory insufficiency patient
Pseudomonas aeruginosa [30] = experiment: Antimicrobial activity against Pseudomonas aeruginosa 2C1 tracheal isolates from mechanically ventilated tuberculosis patient
Pseudomonas aeruginosa [31] = experiment: Antimicrobial activity against Pseudomonas aeruginosa 10B1 tracheal isolates from mechanically ventilated chronic respiratory insufficiency patient
Pseudomonas aeruginosa [32] = experiment: Antimicrobial activity against Pseudomonas aeruginosa 65.36-1 tracheal isolates from mechanically ventilated tuberculosis patient
Pseudomonas aeruginosa [33] = experiment: Antimicrobial activity against Pseudomonas aeruginosa 22E3 tracheal isolates from mechanically ventilated chronic respiratory insufficiency patient
Pseudomonas aeruginosa [34] = experiment: Antimicrobial activity against Pseudomonas aeruginosa 9B2 tracheal isolates from mechanically ventilated chronic respiratory insufficiency patient
Pseudomonas aeruginosa [35] = experiment: Antimicrobial activity against Pseudomonas aeruginosa 2F6 tracheal isolates from mechanically ventilated tuberculosis patient
Pseudomonas aeruginosa [36] = experiment: Antimicrobial activity against Pseudomonas aeruginosa 2A9 tracheal isolates from mechanically ventilated tuberculosis patient
Pseudomonas aeruginosa [37] = experiment: Antimicrobial activity against Pseudomonas aeruginosa 3D10 tracheal isolates from mechanically ventilated chronic respiratory insufficiency patient
Pseudomonas aeruginosa [38] = experiment: Antimicrobial activity against Pseudomonas aeruginosa 19D9 tracheal isolates from mechanically ventilated chronic respiratory insufficiency patient
Pseudomonas aeruginosa [39] = experiment: Antimicrobial activity against Pseudomonas aeruginosa 65.33-4 tracheal isolates from mechanically ventilated tuberculosis patient
Pseudomonas aeruginosa [40] = experiment: Antimicrobial activity against Pseudomonas aeruginosa 13E1 tracheal isolates from mechanically ventilated chronic respiratory insufficiency patient
Pseudomonas aeruginosa [41] = experiment: Antimicrobial activity against Pseudomonas aeruginosa 22D6 tracheal isolates from mechanically ventilated chronic respiratory insufficiency patient
Pseudomonas aeruginosa [42] = experiment: Antimicrobial activity against Pseudomonas aeruginosa 19E9 tracheal isolates from mechanically ventilated chronic respiratory insufficiency patient
Pseudomonas aeruginosa [43] = experiment: Antimicrobial activity against Pseudomonas aeruginosa P21.23 tracheal isolates from mechanically ventilated tuberculosis patient
Pseudomonas aeruginosa [44] = experiment: Antimicrobial activity against Pseudomonas aeruginosa 65.68-1 tracheal isolates from mechanically ventilated tuberculosis patient
Pseudomonas aeruginosa [45] = experiment: Antimicrobial activity against Pseudomonas aeruginosa 5F8 tracheal isolates from mechanically ventilated chronic respiratory insufficiency patient
Pseudomonas aeruginosa [46] = experiment: Antimicrobial activity against Pseudomonas aeruginosa 29F6 tracheal isolates from mechanically ventilated chronic respiratory insufficiency patient
Pseudomonas aeruginosa [47] = experiment: Antimicrobial activity against Pseudomonas aeruginosa 9A7 tracheal isolates from mechanically ventilated chronic respiratory insufficiency patient
Pseudomonas aeruginosa [48] = experiment: Antimicrobial activity against Pseudomonas aeruginosa 12B2 tracheal isolates from mechanically ventilated chronic respiratory insufficiency patient
Pseudomonas aeruginosa [49] = experiment: Antimicrobial activity against Pseudomonas aeruginosa 65.68-2 tracheal isolates from mechanically ventilated tuberculosis patient
Pseudomonas aeruginosa [50] = experiment: Antimicrobial activity against Pseudomonas aeruginosa 5G3 tracheal isolates from mechanically ventilated chronic respiratory insufficiency patient
Pseudomonas aeruginosa [51] = experiment: Antimicrobial activity against Pseudomonas aeruginosa 15G2 tracheal isolates from mechanically ventilated chronic respiratory insufficiency patient
Pseudomonas aeruginosa [52] = experiment: Antimicrobial activity against Pseudomonas aeruginosa 22C5 tracheal isolates from mechanically ventilated chronic respiratory insufficiency patient
Pseudomonas aeruginosa [53] = experiment: Antimicrobial activity against Pseudomonas aeruginosa 9A1 tracheal isolates from mechanically ventilated chronic respiratory insufficiency patient
Pseudomonas aeruginosa [54] = experiment: Antimicrobial activity against Pseudomonas aeruginosa 12A7 tracheal isolates from mechanically ventilated chronic respiratory insufficiency patient
Pseudomonas aeruginosa [55] = experiment: Antimicrobial activity against Pseudomonas aeruginosa 12A3 tracheal isolates from mechanically ventilated chronic respiratory insufficiency patient
Pseudomonas aeruginosa [56] = experiment: Antimicrobial activity against Pseudomonas aeruginosa 22D2 tracheal isolates from mechanically ventilated chronic respiratory insufficiency patient
Pseudomonas aeruginosa [57] = experiment: Antimicrobial activity against Pseudomonas aeruginosa 65.38-1 tracheal isolates from mechanically ventilated tuberculosis patient
Pseudomonas aeruginosa [58] = experiment: Antimicrobial activity against Pseudomonas aeruginosa 1A9 tracheal isolates from mechanically ventilated tuberculosis patient
Pseudomonas aeruginosa [59] = experiment: Antimicrobial activity against Pseudomonas aeruginosa 24G1 tracheal isolates from mechanically ventilated chronic respiratory insufficiency patient

With O=C(O)c1cn(C2CC2)c2cc(N3CCNCC3)c(F)cc2c1=O the Activity (Pseudomonas aeruginosa [1]) was “Active”, the Activity (Pseudomonas aeruginosa [2]) was “Active” and the Activity (Pseudomonas aeruginosa [3]) was “Active”. The Activity (Pseudomonas aeruginosa [4]) was “Active”, the Activity (Pseudomonas aeruginosa [5]) was “Active” and the Activity (Pseudomonas aeruginosa [6]) was “Active”. For the same compound, the Activity (Pseudomonas aeruginosa [7]) was “Active”, the Activity (Pseudomonas aeruginosa [8]) was “Active” and the Activity (Pseudomonas aeruginosa [9]) was “Active”. The Activity (Pseudomonas aeruginosa [10]) was “Active”, the Activity (Pseudomonas aeruginosa [11]) was “Active” and the Activity (Pseudomonas aeruginosa [12]) was “Active”. For the same compound, the Activity (Pseudomonas aeruginosa [13]) was “Active”, the Activity (Pseudomonas aeruginosa [14]) was “Active” and the Activity (Pseudomonas aeruginosa [15]) was “Active”. For the same compound, the Activity (Pseudomonas aeruginosa [16]) was “Active”, the Activity (Pseudomonas aeruginosa [17]) was “Active” and the Activity (Pseudomonas aeruginosa [18]) was “Active”. The Activity (Pseudomonas aeruginosa [19]) was “Active”, the Activity (Pseudomonas aeruginosa [20]) was “Active” and the Activity (Pseudomonas aeruginosa [21]) was “Active”. For the same compound, the Activity (Pseudomonas aeruginosa [22]) was “Active”, the Activity (Pseudomonas aeruginosa [23]) was “Active” and the Activity (Pseudomonas aeruginosa [24]) was “Active”. The Activity (Pseudomonas aeruginosa [25]) was “Active”, the Activity (Pseudomonas aeruginosa [26]) was “Active” and the Activity (Pseudomonas aeruginosa [27]) was “Active”. The Activity (Pseudomonas aeruginosa [28]) was “Active”, the Activity (Pseudomonas aeruginosa [29]) was “Active” and the Activity (Pseudomonas aeruginosa [30]) was “Active”. For the same compound, the Activity (Pseudomonas aeruginosa [31]) was “Active”, the Activity (Pseudomonas aeruginosa [32]) was “Active” and the Activity (Pseudomonas aeruginosa [33]) was “Active”. For the same compound, the Activity (Pseudomonas aeruginosa [34]) was “Active”, the Activity (Pseudomonas aeruginosa [35]) was “Active” and the Activity (Pseudomonas aeruginosa [36]) was “Active”. For the same compound, the Activity (Pseudomonas aeruginosa [37]) was “Active”, the Activity (Pseudomonas aeruginosa [38]) was “inactive” and the Activity (Pseudomonas aeruginosa [39]) was “Active”. For the same compound, the Activity (Pseudomonas aeruginosa [40]) was “Active”, the Activity (Pseudomonas aeruginosa [41]) was “Active” and the Activity (Pseudomonas aeruginosa [42]) was “Active”. For the same compound, the Activity (Pseudomonas aeruginosa [43]) was “Active”, the Activity (Pseudomonas aeruginosa [44]) was “Active” and the Activity (Pseudomonas aeruginosa [45]) was “Active”. For the same compound, the Activity (Pseudomonas aeruginosa [46]) was “Active”, the Activity (Pseudomonas aeruginosa [47]) was “Active” and the Activity (Pseudomonas aeruginosa [48]) was “Active”. For the same compound, the Activity (Pseudomonas aeruginosa [49]) was “Active”, the Activity (Pseudomonas aeruginosa [50]) was “Active” and the Activity (Pseudomonas aeruginosa [51]) was “inactive”. The Activity (Pseudomonas aeruginosa [52]) was “Active”, the Activity (Pseudomonas aeruginosa [53]) was “Active” and the Activity (Pseudomonas aeruginosa [54]) was “Active”. For the same compound, the Activity (Pseudomonas aeruginosa [55]) was “Active”, the Activity (Pseudomonas aeruginosa [56]) was “Active” and the Activity (Pseudomonas aeruginosa [57]) was “Active”. The Activity (Pseudomonas aeruginosa [58]) was “Active”.

In the case of NCC[C@H](O)C(=O)N[C@@H]1C[C@H](N)[C@@H](O[C@H]2O[C@H](CN)[C@@H](O)[C@H](O)[C@H]2O)[C@H](O)[C@H]1O[C@H]1O[C@H](CO)[C@@H](O)[C@H](N)[C@H]1O, the Activity (Pseudomonas aeruginosa [1]) is reported as “Active”, the Activity (Pseudomonas aeruginosa [2]) is reported as “Active” and the Activity (Pseudomonas aeruginosa [3]) is reported as “Active”. For the same compound, the Activity (Pseudomonas aeruginosa [4]) was “Active”, the Activity (Pseudomonas aeruginosa [5]) was “inactive” and the Activity (Pseudomonas aeruginosa [6]) was “Active”. For the same compound, the Activity (Pseudomonas aeruginosa [7]) was “Active”, the Activity (Pseudomonas aeruginosa [8]) was “Active” and the Activity (Pseudomonas aeruginosa [9]) was “Active”. The Activity (Pseudomonas aeruginosa [10]) was “Active”, the Activity (Pseudomonas aeruginosa [11]) was “Active” and the Activity (Pseudomonas aeruginosa [12]) was “Active”. For the same compound, the Activity (Pseudomonas aeruginosa [13]) was “Active”, the Activity (Pseudomonas aeruginosa [14]) was “inactive” and the Activity (Pseudomonas aeruginosa [15]) was “Active”. The Activity (Pseudomonas aeruginosa [16]) was “Active”, the Activity (Pseudomonas aeruginosa [17]) was “Active” and the Activity (Pseudomonas aeruginosa [18]) was “Active”. For the same compound, the Activity (Pseudomonas aeruginosa [19]) was “Active”, the Activity (Pseudomonas aeruginosa [20]) was “Active” and the Activity (Pseudomonas aeruginosa [21]) was “Active”. The Activity (Pseudomonas aeruginosa [22]) was “Active”, the Activity (Pseudomonas aeruginosa [23]) was “inactive” and the Activity (Pseudomonas aeruginosa [24]) was “Active”. For the same compound, the Activity (Pseudomonas aeruginosa [25]) was “Active”, the Activity (Pseudomonas aeruginosa [26]) was “Active” and the Activity (Pseudomonas aeruginosa [27]) was “Active”. For the same compound, the Activity (Pseudomonas aeruginosa [28]) was “inactive”, the Activity (Pseudomonas aeruginosa [29]) was “Active” and the Activity (Pseudomonas aeruginosa [30]) was “inactive”. The Activity (Pseudomonas aeruginosa [31]) was “Active”, the Activity (Pseudomonas aeruginosa [33]) was “Active” and the Activity (Pseudomonas aeruginosa [34]) was “Active”. For the same compound, the Activity (Pseudomonas aeruginosa [35]) was “inactive”, the Activity (Pseudomonas aeruginosa [36]) was “inactive” and the Activity (Pseudomonas aeruginosa [37]) was “Active”. The Activity (Pseudomonas aeruginosa [38]) was “Active”, the Activity (Pseudomonas aeruginosa [40]) was “Active” and the Activity (Pseudomonas aeruginosa [41]) was “Active”. The Activity (Pseudomonas aeruginosa [42]) was “Active”, the Activity (Pseudomonas aeruginosa [43]) was “Active” and the Activity (Pseudomonas aeruginosa [44]) was “Active”. For the same compound, the Activity (Pseudomonas aeruginosa [45]) was “Active”, the Activity (Pseudomonas aeruginosa [46]) was “Active” and the Activity (Pseudomonas aeruginosa [47]) was “Active”. The Activity (Pseudomonas aeruginosa [48]) was “Active”, the Activity (Pseudomonas aeruginosa [49]) was “Active” and the Activity (Pseudomonas aeruginosa [50]) was “Active”. For the same compound, the Activity (Pseudomonas aeruginosa [51]) was “Active”, the Activity (Pseudomonas aeruginosa [52]) was “Active” and the Activity (Pseudomonas aeruginosa [53]) was “Active”. The Activity (Pseudomonas aeruginosa [54]) was “Active”, the Activity (Pseudomonas aeruginosa [55]) was “Active” and the Activity (Pseudomonas aeruginosa [56]) was “Active”. For the same compound, the Activity (Pseudomonas aeruginosa [57]) was “inactive” and the Activity (Pseudomonas aeruginosa [59]) was “Active”.

From ChEMBL document CHEMBL1147101, “Development and persistence of antimicrobial resistance in Pseudomonas aeruginosa: a longitudinal observation in mechanically ventilated patients” (Antimicrob Agents Chemother, 2007)
